Assay results reported in patent publication EP4385980A1, “INDAZOLES AS INHIBITORS OF NAV1.8” (Grünenthal GmbH, priority 2022, dated 2024).

Target: T1, human NaV1.8 (Homo sapiens, UniProt Q9Y5Y9)
T1 construct: expressed in transfected cells; host or cells: HEK
Test: Electrophysiology: voltage-clamp recordings (whole-cell automated patch clamp, Qube384)
Assay type: cell-based
Conditions: HEK-NaV1.8 with b3 recombinant cell line, ambient room temperature, read-out: Potency category (human NaV1.8 IC50)
Method: The following NaV1.8 recombinant cell line was used for recordings: HEK-NaV1.8 (NM_006514.1) with b3 (NM_018400.3).
Sodium currents were measured using the patch clamp technique in the whole-cell configuration using the Qube384 (Sophion A/S, Copenhagen, Denmark) automated voltage clamp platform. "Multi hole" plates were used for the cell line expressing NaV1.8 while "single hole" plates were used for the recombinant cell lines expressing the other subtypes. Appropriate filters (for minimum seal resistance and minimum current size) and series resistance compensation (for high quality sodium channel recordings) were applied. Data was collected at ambient room temperature.
The recording […] solution contained (in mM): NaCl 145 mM, KCl 4 mM, CaCl2 2 mM, MgCl2 1 mM, HEPES 10 mM, Glucose 10 mM, pH 7.4 (NaOH). The […] recording solution contained (in mM): CsF 120 mM, CsCl 20 mM, NaCl 10 mM, EGTA 10 mM, HEPES 10 mM, pH 7.2 (CsOH). Currents were recorded at 25 kHz sampling frequency and filtered at 5 kHz. Series resistance compensation was applied at 65%.
Vehicle (VEH) is the control condition where cells are exposed to 0.3 % DMSO without compound. All runs include VEH controls being exposed to the same voltage protocols to assess non-compound related phenomena such as run down and then used to isolate compound dependent effects on currents.
To check for state-dependence inhibition, the following voltage-sequence was applied every 20 seconds: From a resting membrane potential of-120 mV, the first test pulse (P1; 20 ms to -10 mV) was applied to check for channels in the Resting State followed by a brief recovery (20 ms to -120 mV), then holding the membrane voltage to V1/2 (4 seconds at voltage to obtain half the channel at Rest and half Inactivated) with a subsequent second test pulse (P2; 20 ms to -10 mV) to check for channels in the Inactivated State, followed by another brief recovery (20 ms to -120 mV) and a final third test pulse (P3; 20 ms to -10 mV) to check for recovered channels.
To check for frequency-dependent inhibition, a 10 Hz protocol and a 20 Hz protocol were applied; namely,
From a resting membrane potential of -120 mV, 40-pulses (10 ms to -10 mV) was applied at 10 Hz (at 100 ms between pulses) and then at 20 Hz (at 50 ms between pulses).
Each parameter was recorded (P1, P2, P3, P40 from 10Hz and P40 from 20Hz) during a control period (lasting ~ 5 minutes) when establishing the baseline and during compound period (lasting ~ 12 minutes) when test compound (or vehicle) was applied. For each parameter, the value at the end of the compound period was normalized to the vehicle baseline; as follows Normalized Inhibition (NormCPD) = (CPD Valueend CPD period)/(VEH Valueend Control Period) [formula]
To adjust for any variance in the Na^+ current signal during the compound period (owing to cumulative inactivation independent of compound or shifts in biophysics over time), a dedicated segment of the recording wells in each 384 plate were dedicated to having only vehicle exposure. These vehicle-only recordings were used to correct for any apparent "run-up" or "run-down" in the experiment. Normalized Inhibition (NormVEH) = (VEH Valueend CPD period)/(VEH Valueend Control Period) [formula]
The adjusted inhibition was calculated as follows: % Inhibitioncorrected = 100 × (NormCPD −NormVEH)/(100−NormVEH) [formula]
Percent inhibition was determined and IC50 values were calculated using a 4 parameter logistic model within XLFit Software (IDBS, Boston MA): % Inhibitioncorrected = A + ((B−A))/((1 + (((x)/(C)))^D) [formula] where A and B are the maximal and minimum inhibition respectively, C is the IC50 concentration and D is the (Hill) slope.

T1 sequence (Q9Y5Y9 whole entry): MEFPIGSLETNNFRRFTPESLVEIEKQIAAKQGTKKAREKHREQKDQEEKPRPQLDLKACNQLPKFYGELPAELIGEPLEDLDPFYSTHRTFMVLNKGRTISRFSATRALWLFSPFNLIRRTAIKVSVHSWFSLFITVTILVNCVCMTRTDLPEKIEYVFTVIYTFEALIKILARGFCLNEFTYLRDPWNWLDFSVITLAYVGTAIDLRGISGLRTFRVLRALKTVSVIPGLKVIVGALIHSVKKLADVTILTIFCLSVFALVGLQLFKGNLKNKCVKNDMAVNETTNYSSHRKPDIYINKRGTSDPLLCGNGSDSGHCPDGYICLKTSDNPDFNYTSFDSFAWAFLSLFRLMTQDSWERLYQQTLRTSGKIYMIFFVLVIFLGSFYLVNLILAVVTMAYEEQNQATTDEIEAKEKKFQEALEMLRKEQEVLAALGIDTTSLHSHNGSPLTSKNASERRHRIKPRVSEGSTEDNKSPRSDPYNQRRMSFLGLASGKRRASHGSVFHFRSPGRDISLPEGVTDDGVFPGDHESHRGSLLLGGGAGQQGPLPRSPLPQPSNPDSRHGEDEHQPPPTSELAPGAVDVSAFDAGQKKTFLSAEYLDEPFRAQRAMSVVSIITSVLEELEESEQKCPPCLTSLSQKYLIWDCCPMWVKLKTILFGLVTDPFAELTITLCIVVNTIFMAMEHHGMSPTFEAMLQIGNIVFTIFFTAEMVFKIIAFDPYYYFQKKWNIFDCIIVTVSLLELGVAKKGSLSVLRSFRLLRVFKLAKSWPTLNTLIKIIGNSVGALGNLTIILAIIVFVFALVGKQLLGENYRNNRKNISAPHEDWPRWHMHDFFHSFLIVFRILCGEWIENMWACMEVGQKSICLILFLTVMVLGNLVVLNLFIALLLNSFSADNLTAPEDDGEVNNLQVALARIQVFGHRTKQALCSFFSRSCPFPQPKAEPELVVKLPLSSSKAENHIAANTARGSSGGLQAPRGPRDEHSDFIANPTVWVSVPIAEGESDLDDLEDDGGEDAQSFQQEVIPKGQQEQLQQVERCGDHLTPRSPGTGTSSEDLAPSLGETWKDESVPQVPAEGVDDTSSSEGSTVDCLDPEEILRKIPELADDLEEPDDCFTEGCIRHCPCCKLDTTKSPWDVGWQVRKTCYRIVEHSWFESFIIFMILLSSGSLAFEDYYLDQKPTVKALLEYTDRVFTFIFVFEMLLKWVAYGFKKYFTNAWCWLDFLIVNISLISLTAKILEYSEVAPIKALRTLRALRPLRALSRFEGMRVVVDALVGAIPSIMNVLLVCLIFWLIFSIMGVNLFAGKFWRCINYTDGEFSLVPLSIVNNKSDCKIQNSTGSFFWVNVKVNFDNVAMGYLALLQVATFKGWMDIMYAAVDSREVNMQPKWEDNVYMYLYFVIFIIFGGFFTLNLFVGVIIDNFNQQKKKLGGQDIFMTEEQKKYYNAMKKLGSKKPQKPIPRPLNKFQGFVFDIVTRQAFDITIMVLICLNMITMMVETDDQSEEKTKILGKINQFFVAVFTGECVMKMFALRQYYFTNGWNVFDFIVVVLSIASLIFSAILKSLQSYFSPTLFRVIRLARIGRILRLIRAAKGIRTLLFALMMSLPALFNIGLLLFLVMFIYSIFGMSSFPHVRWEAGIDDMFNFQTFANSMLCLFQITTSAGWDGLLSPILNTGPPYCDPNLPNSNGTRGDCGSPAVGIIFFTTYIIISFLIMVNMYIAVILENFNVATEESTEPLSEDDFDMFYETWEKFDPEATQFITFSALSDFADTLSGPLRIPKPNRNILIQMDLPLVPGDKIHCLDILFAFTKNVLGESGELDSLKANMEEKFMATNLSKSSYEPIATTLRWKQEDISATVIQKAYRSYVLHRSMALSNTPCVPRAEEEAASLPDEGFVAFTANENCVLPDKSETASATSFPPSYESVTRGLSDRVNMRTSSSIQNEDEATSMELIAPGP
T1 sequence (Q9NY72 23-215 partner): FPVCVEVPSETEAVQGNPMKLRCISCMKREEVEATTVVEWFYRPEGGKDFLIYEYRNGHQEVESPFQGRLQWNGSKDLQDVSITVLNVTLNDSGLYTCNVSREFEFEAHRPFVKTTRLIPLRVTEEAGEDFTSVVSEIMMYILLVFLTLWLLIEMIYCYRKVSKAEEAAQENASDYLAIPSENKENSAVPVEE

Row | SMILES | IC50
1 | NC(=O)c1cccc(NC(=O)c2c3ccc(F)cc3nn2CC2CCC(F)(F)CC2)c1 [SC-76, N-(3-Carbamoylphenyl)-2-[(4,4-difluorocyclohexyl)methyl]-6-fluoro-2H-indazole-3-carboxamide] | 0.1 to 1 µM
2 | CS(=O)(=O)c1cc(NC(=O)c2c3ccccc3nn2CC2CCCCC2)ccc1F [SC-77, 2-(cyclohexylmethyl)-N-(4-fluoro-3-methylsulfonylphenyl)indazole-3-carboxamide] | ≤ 0.1 µM
3 | Cc1cccc2c(C(=O)Nc3cccc(S(N)(=O)=O)c3)n(CC3CCC(F)(F)C3)nc12 (stereo not drawn) [SC-80, 2-((3,3-difluorocyclopentyl)methyl)-7-methyl-N-(3-sulfamoylphenyl)-2H-indazole-3-carboxamide] | ≤ 0.1 µM
4 | NS(=O)(=O)c1cccc(NC(=O)c2c3cccc(F)c3nn2CC2CCCC(F)(F)C2)c1 (stereo not drawn) [SC-81, 2-((3,3-difluorocyclohexyl)methyl)-7-fluoro-N-(3-sulfamoylphenyl)-2H-indazole-3-carboxamide] | ≤ 0.1 µM
5 | NS(=O)(=O)c1cc(NC(=O)c2c3cccc(C(F)F)c3nn2C[C@H]2CCCCO2)ccn1 [SC-89b] | ≤ 0.1 µM

Further lines, results first:

Row | IC50 | SMILES
6 | ≤ 0.1 µM | Cc1cccc2nn(CC3CCCCC3)c(C(=O)Nc3cccc(S(C)(=O)=O)c3)c12 [SC-83, 2-(cyclohexylmethyl)-4-methyl-N-(3-(methylsulfonyl)phenyl)-2H-indazole-3-carboxamide]
7 | ≤ 0.1 µM | NS(=O)(=O)c1cccc(NC(=O)c2c3cccc(C4CC4)c3nn2CC2CCOCC2)c1 [SC-85, 7-cyclopropyl-N-(3-sulfamoylphenyl)-2-((tetrahydro-2H-pyran-4-yl)methyl)-2H-indazole-3-carboxamide]
8 | ≤ 0.1 µM | NC(=O)c1cc(NC(=O)c2c3ccc(F)cc3nn2CC2CCCCC2)ccn1 [SC-86, N-(2-carbamoylpyridin-4-yl)-2-(cyclohexylmethyl)-6-fluoro-2H-indazole-3-carboxamide]
9 | ≤ 0.1 µM | NS(=O)(=O)c1cc(NC(=O)c2c3ccc(F)cc3nn2CC2CCCCC2)ccn1 [SC-87, 2-(cyclohexylmethyl)-6-fluoro-N-(2-sulfamoylpyridin-4-yl)-2H-indazole-3-carboxamide]
